Data as given in patent US7208450B2, “Pesticidal (dihalopropenyl) phenylalkyl substituted benzoxazole and benzothiazole derivatives” (Bayer CropScience AG, priority 2003, dated 2007).

Experiments:
[1] = tested on: tobacco budworm; experiment: foliar treated test against tobacco budworm on chick pea plants; assay type: in vivo, Heliothis virescens; conditions: sprayed chick pea foliage, 96 hour exposure, dead plus moribund insects
Experimental: Certain compounds of formula I were tested against tobacco budworm on plant foliage. The foliar treated test against tobacco budworm were conducted in the following manner:
Nine-to-ten day-old chick pea plants (Cicer arietinum) were sprayed at 15 psi to runoff on both upper and lower leaf surfaces with solutions of test compound to provide application rates as high as 1000 ppm of test chemical. The solvent used to prepare the solutions of test compound was 10% acetone or methanol (v/v) and 0.1% of the surfactant octylphenoxypolyethoxyethanol in distilled water. Four replicates, each containing one chick pea plant, for each rate of application of test compound were sprayed. The treated plants were transferred to a hood where they were kept until the spray had dried.
The four chick pea plants for each replicate treated with test compound as described above were removed from their pots by cutting the stems just above the soil line. The excised leaves and stems from the four plants in each replicate were placed in individual 237 mL (8-ounce) paper cups, which contained a moistened filter paper. Five second-instar tobacco budworm (7 days old) were counted into each cup, taking care not to cause injury. An opaque plastic lid was placed on each cup, which was then held in a growth chamber for a 96 hour exposure period at 25° C. 50% relative humidity and photo-period of 12 hours light and 12 hours dark. At the end of the 96 hour exposure period the cups were opened, and the numbers of dead, moribund, and live insects were counted. Using the insect counts, the efficacy of the test compound was expressed in percent control. Percent control is derived from the total number of dead insects (TD) plus the total number of moribund insects (TM) as compared to the total number of insects (TI) in the test:
The condition of the test plants was also observed for phytotoxicity and for reduction of feeding damage as compared to an untreated control.

[2] = tested on: tobacco budworm (Heliothis virescens [Fabricius]); experiment: surface-treated diet test against tobacco budworm; assay type: in vivo; conditions: 0.25 millimolar on surface of diet, second instar larvae, five-day exposure; for Percent Growth Inhibition: insect weight relative to untreated controls
Source text: The test compounds of formula I are identified by numbers that correspond to those in Table 1.

## CC1(C)Oc2ccc(OCCCCOc3c(Cl)cc(OCC=C(Cl)Cl)cc3Cl)cc2O1 [Compound 4]
[1]; 10 ppm
  Percent Control of Tobacco Budworm in a Foliar Test: 15%
[1]; 30 ppm
  Percent Control of Tobacco Budworm in a Foliar Test: 55%

## Cc1nc2cc(OCCCCCOc3c(Cl)cc(OCC=C(Cl)Cl)cc3Cl)ccc2s1 [Compound 12, 5-(3,3-dichloroprop-2-enyloxy)-1,3-dichloro-2-[5-(2-methylbenzothiazol-5-yloxy)pentyloxy]benzene]
[2]
  Percent Mortality: 100%
  Percent Growth Inhibition: 100%
[1]; 10 ppm
  Percent Control of Tobacco Budworm in a Foliar Test: 15%

## FC(F)(F)c1nc2ccc(OCCCCOc3c(Cl)cc(OCC=C(Cl)Cl)cc3Cl)cc2o1 [Compound 6, 5-(3,3-dichloroprop-2-enyloxy)-1,3-dichloro-2-{4-[2-(trifluoromethyl)benzoxazol-6-yloxy]butoxy}benzene]
[2]
  Percent Mortality: 100%
  Percent Growth Inhibition: 100%
[1]; 10 ppm
  Percent Control of Tobacco Budworm in a Foliar Test: 70%
[1]; 30 ppm
  Percent Control of Tobacco Budworm in a Foliar Test: 95%

## FC(F)(F)c1nc2ccc(OCCCOc3c(Cl)cc(OCC=C(Cl)Cl)cc3Cl)cc2o1 [Compound 3, 5-(3,3-dichloroprop-2-enyloxy)-1,3dichloro-2-{3-[2-(trifluoromethyl)benzoxazol-6-yloxy]propoxy}benzene]
[2]
  Percent Mortality: 100%
  Percent Growth Inhibition: 100%
[1]; 10 ppm
  Percent Control of Tobacco Budworm in a Foliar Test: 100%
[1]; 30 ppm
  Percent Control of Tobacco Budworm in a Foliar Test: 100%
